Results published in US10126316B2, “Systems and methods for the measurement of tacrolimus in oral fluids by liquid chromatography tandem mass spectrometry” (Rhode Island Council on Postsecondary Education, Statutory …, priority 2016, dated 2018).

Legend:
[1] = Tacrolimus concentration in oral fluid and whole blood of kidney transplant recipients by LC-MS/MS (Example 1 patient samples); format: in vivo, human
Method: The chromatographic conditions were optimized and the gradient elution described here provided the best separation of TAC and IS from suppressing phospholipid ions. Chromatographic separation was achieved using a mobile phase which consisted of water containing 2 mM ammonium acetate/0.1% (v/v) formic acid (solvent A); and MeOH containing 2 mM ammonium acetate/0.1% (v/v) formic acid (solvent B). The mobile phase was delivered at 0.4 mL/min flow rate. The run cycle started at 50% solvent (B) and increased gradually to 98% over 0.5 min and was maintained at this level until 1.8 min. To re-equilibrate the column for the next run, solvent (B) decreased within 0.1 min to 50% and remained at 50% until the end of the run at 2.2 minutes. The diversion valve was set to deliver the first 0.70 min and from 1.20 min until the end of each run to waste. The elution time of TAC and IS was 1.0 min.
Mass spectrometry detection and quantification of TAC and ASC was performed in positive electrospray ionization (ESI) and multiple reaction monitoring (MRM) modes. Intellistart tool was used to obtain initial mass spectrometry parameters in low mass resolution analysis mode followed by manual tuning to achieve highest possible sensitivity. Final mass spectrometry parameters were as following: collision energy (CE)=22 and 20 for ASC and TAC respectively, cone voltage (CV)=28, capillary voltage (kV)=1.50, source temperature (° C.)=150, cone gas flow (L/hr)=25, desolvation gas flow (L/hr)=1000, and collision gas flow (mL/min)=0.15. Ammonium adducts [M+NH4]^+ were selected as precursors for MRM with transitions (m/z, Q1→Q3) of (m/z, 809.30→756.30) and (m/z, 821.30→768.35) for ASC and TAC, respectively.
Study protocols were approved by Institutional Review Board at Rhode Island Hospital (Providence, R.I.). After giving informed consent, kidney transplant recipients attending kidney transplant clinics were recruited. […] All blood and OF samples were kept on ice until transferred to the Biomedical and Pharmaceutical Sciences (BPS) department at University of Rhode Island and stored at −80° C. until analyzed. […]

[2] = cited from earlier work
[3] = Study A: 12-hour profile of tacrolimus in oral fluid and blood; format: in vivo, human; conditions: for OF/blood Conc. (*100) / Tacrolimus Conc. in OF / Tacrolimus blood Conc.: geometric mean (95% CI)
Method: Study A. Characterization of 12-hour profile of tacrolimus in OFs: The objective of this study was to obtain parallel blood and saliva samples for 12 h after the morning dose tacrolimus. On the morning of the study day, a venous blood sample (about 4 mL) was collected in ethylenediaminetetraacetic acid (EDTA) coated tubes. Simultaneously, OF samples were collected by passive drool (resting) in a siliconized plastic cup. After the administration of morning dose of immunosuppressive agents including tacrolimus, serial samples were collected at certain time points post-dose for 12-hour. All patients fasted overnight but prior to the start of sample collection, took a protein bar with their morning medication together with a glass of water. Thus, the samples obtained in this study was regarded as samples collected at non-fasting state.
(§1) Sample extraction was preformed mixing 200 μL of the blood sample with 800 μL of precipitating solution [ZnSO4 (17.28 g/L) in water and methanol (30:70, v/v) containing 100 ng/mL ascomycin as internal standard]. After vortex mixing, samples were centrifuged for 10 min at 13,000 rpm.
(§2) The concentration of tacrolimus in OF was measured using a validated LC-MS/MS method. […] TAC was eluted by gradient elution with 2 mM ammonium acetate/0.1 formic acid in water (mobile phase A) and in methanol (mobile phase B) at 0.4 mL/min flow rate. Initial mobile phase comprised of 50% solvent B, increased gradually to 98% over 0.5 min and maintained at this level until 1.8 min. Then mobile phase was returned to initial conditions within 10 s and maintained until the end of the run at 2.2 min to recondition the column for the next run. The elution time of TAC and internal standard was 1.0 min.
(§3) A simple sample preparation and extraction procedure was followed. Briefly, 50 μL of homogenized OF sample was added to 100 μL of ACN precipitating solvent containing internal standard (ascomycin, 600 ng/L). After vortex mixing for 10 s, the mixture was centrifuged at 10,000 g for 5 min at 20° C. The supernatant was then transferred to an auto-sampler vial, and 10 μL was injected onto LC-MS/MS. The dynamic range of the assay was 30-4,800 pg/mL. […] The lower limit of quantification (LLOQ) for the assay was set at […] Acceptance criteria for quality controls (QCs) included in the assay was accuracy between 85-115% and CV <15%. Selectivity was assessed by inspecting the presence of noise or peaks in chromatograms blank OF samples injections (from 6 donors) and a comparison with LLOQ chromatogram.

[4] = Tacrolimus concentration in paired oral fluid and blood samples, all samples of Example 2; format: in vivo, human
From the text: Study population: Samples included in this study were collected during two clinical studies from stable kidney transplant recipients. Protocol for each clinical study was approved by the Institutional Review Board of Rhode Island Hospital (Providence, R.I.). On the study day, all patients underwent a physical examination by the study physician and were asked to sign an informed consent prior to sample collection. All patients were on a triple immunosuppressant regimen that included tacrolimus, prednisone, and mycophenolic acid. All blood and OF samples were kept on dry ice until transfer to the Clinical Pharmacokinetics Research Laboratory at the University of Rhode Island and subsequent storage at −80° C. until further analysis.
Upon thawing saliva samples, an aliquot of saliva was weighed with an analytical balance and the weight was recorded to establish the drug concentration as pg/mg weight. Moreover, the pH of saliva was measured by an Orion STAR A111 pH meter equipped with Micro Electrode from Thermo Scientific (Waltham, Mass., USA). To assess and quantify possible blood contamination of OF, a transferrin kit from Salimetrics LLC (State College, Pa., USA) was used (the validated assay range is ≤6.6 mg/dL). Transferrin (TRNs) is a plasma protein (Mw=76,000) that is used as a biomarker for presence of blood in OF. Transferrin quantification was performed using SpectraMax M5e Microplate Reader (Sunnyvale, Calif., USA).
as §1, §2, §3

[5] = Stability studies of TAC in oral fluid QC samples; format: physicochemical, human; conditions: for Stability, % Accuracy, Bench top / Stability, % Accuracy, Short-term 1 weeks / Stability, % Accuracy, Short-term 4 weeks / Stability, % Accuracy, Freeze & thaw / Stability, % Accuracy, Auto-sampler 24 hrs / Stability, % Accuracy, Auto-sampler 48 hrs: N = 3; for Stability, % Accuracy, Short-term 1 weeks / Stability, % Accuracy, Short-term 4 weeks: storage at −80° C.; for Stability, % Accuracy, Freeze & thaw: three freeze and thaw cycles; for Stability, % Accuracy, Auto-sampler 24 hrs / Stability, % Accuracy, Auto-sampler 48 hrs: extracted
Method: Stability studies were performed by measuring TAC concentrations in QC1 and QC3, in three replicates. Freeze and thaw (after three freeze and thaw cycles), bench-top, auto-sampler (by re-injecting one of validation batch after it was left in the auto-sampler for 24 h and 48 h), and short-term stability up to one month were investigated.

[6] = Study B: effect of oral fluid sample collection method on tacrolimus concentration; format: in vivo, human; conditions: geometric mean (95% CI)
Method: Study B. Characterization of the effect of OF sample collection method: Blood samples were collected at pre-dose (C0) and then at two-hour after dose (C2). Patients have arrived at the hospital after an overnight fast and were remained fasted during collection of C0 samples. Matching OF samples were collected within ±5 min from blood sample time by passive drool (resting sample), after mouth rinsing with water (rinsed sample), and immediately after taking a sour candy to stimulate saliva production (stimulated sample). For the following samples, patients were asked to place a small piece of a commercial candy containing citric and tartaric acids (Sour Patch Kids, Mondelēz International, East Hanover, N.J., USA) in their mouth for 10 s with continues tongue movement. After C0 samples collection, patients were given a voucher for breakfast and were asked to report back to the study location shortly before sample collection at two-hour after dose (C2). The same process of blood and corresponding OF sample collection was followed at this time. The C2 samples were regarded as fed state.
as §1, §2, §3

Question: What does the source list for `C=CC[C@@H]1/C=C(\C)C[C@H](C)C[C@H](OC)[C@H]2O[C@@](O)(C(=O)C(=O)N3CCCC[C@H]3C(=O)O[C@H](/C(C)=C/[C@@H]3CC[C@@H](O)[C@H](OC)C3)[C@H](C)[C@@H](O)CC1=O)[C@H](C)C[C@@H]2OC.O` [Tacrolimus]?
Answer: Concentration of TAC in OF (range) ([1]; 181 OF samples, stable transplant recipients): 11.7 to 2864.4 pg/mL; Calculated concentration of the one OF sample lower than LLOQ ([1]; one of 181 OF samples): around 8.5 pg/mL; Concentration of TAC in whole blood (range) ([1]; stable transplant recipients): 1.7 to 46.1 ng/mL; Fraction of tacrolimus distributed into red blood cells [2]: About 85%; Fraction of total TAC in blood present as free (unbound) form [2]: 1%; Concentration of TAC in blood ([3]; 80 paired samples, 10 patients, fed state): 5.7 ± 2.6 ng/mL; Concentration of TAC in oral fluids ([3]; 80 paired samples, 10 patients, passive drool, fed state): 885 ± 650 pg/mL; OF/blood Conc. (*100) ([3]; All other times): 14 (11, 16); Tacrolimus Conc. in OF ([3]; All other times): 783 (627, 878) pg/mL; Tacrolimus blood Conc. ([3]; All other times): 5.5 (5.0, 5.9) ng/mL; OF/blood Conc. (*100) ([3]; Peak (C2)): 11 (7, 16); Tacrolimus Conc. in OF ([3]; Peak (C2)): 573 (411, 599) pg/mL; Tacrolimus blood Conc. ([3]; Peak (C2)): 5.5 (4.6, 6.5) ng/mL; OF/blood Conc. (*100) ([3]; Trough (C0, incl. C12)): 11 (7, 18); Tacrolimus Conc. in OF ([3]; Trough (C0, incl. C12)): 430 (272, 680) pg/mL; Tacrolimus blood Conc. ([3]; Trough (C0, incl. C12)): 3.8 (3.1, 4.7) ng/mL; Tacrolimus concentration in blood (mean±SD) ([4]; 276 paired samples): 7.4 ± 5 ng/mL; Tacrolimus concentration in blood (median) ([4]; 276 paired samples): 5.9 ng/mL; Concentration of tacrolimus in OFs (mean±SD) ([4]; homogenized OFs): 744 ± 666 pg/mL; Concentration of tacrolimus in OFs (median) ([4]; homogenized OFs): 505 pg/mL; Concentration of tacrolimus corrected for the weight of homogenized OF (mean±SD) ([4]; in vivo): 540 ± 485 pg/mg; Concentration of tacrolimus corrected for the weight of homogenized OF (median) ([4]; in vivo): 367 pg/mg; Stability, % Accuracy, Bench top ([5]; QC1 (30 pg/mL) in OF): 111.1%; Stability, % Accuracy, Short-term 1 weeks ([5]; QC1 (30 pg/mL) in OF): 98.4%; Stability, % Accuracy, Short-term 4 weeks ([5]; QC1 (30 pg/mL) in OF): 100.8%; Stability, % Accuracy, Freeze & thaw ([5]; QC1 (30 pg/mL) in OF): 108.2%; Stability, % Accuracy, Auto-sampler 24 hrs ([5]; QC1 (30 pg/mL)): 105.3%; Stability, % Accuracy, Auto-sampler 48 hrs ([5]; QC1 (30 pg/mL)): 102.5%; Stability, % Accuracy, Bench top ([5]; QC3 (1200 pg/mL) in OF): 98.8%; Stability, % Accuracy, Short-term 1 weeks ([5]; QC3 (1200 pg/mL) in OF): 98.9%; Stability, % Accuracy, Short-term 4 weeks ([5]; QC3 (1200 pg/mL) in OF): 102.9%; Stability, % Accuracy, Freeze & thaw ([5]; QC3 (1200 pg/mL) in OF): 111.9%; Stability, % Accuracy, Auto-sampler 24 hrs ([5]; QC3 (1200 pg/mL)): 102.2%; Stability, % Accuracy, Auto-sampler 48 hrs ([5]; QC3 (1200 pg/mL)): 105.6%; Stability in extracted matrix ([5]; auto-sampler, up to 48 h): stable in extracted matrix for up to 48 h; OF/blood Conc. (*100) ([6]; C0 (fasted), Resting): 19 (14, 24); Tacrolimus Conc. in OF ([6]; C0 (fasted), Resting): 1003 (747, 1348) pg/mL; Tacrolimus blood Conc. ([6]; C0 (fasted), Resting): 5.5 (4.7, 6.3) ng/mL; OF/blood Conc. (*100) ([6]; C0 (fasted), Rinsed): 11 (9, 13); Tacrolimus Conc. in OF ([6]; C0 (fasted), Rinsed): 584 (436, 782) pg/mL; Tacrolimus blood Conc. ([6]; C0 (fasted), Rinsed): 5.4 (4.7, 6.3) ng/mL; OF/blood Conc. (*100) ([6]; C0 (fasted), Stimulated): 3 (2, 4); Tacrolimus Conc. in OF ([6]; C0 (fasted), Stimulated): 164 (119, 226) pg/mL; Tacrolimus blood Conc. ([6]; C0 (fasted), Stimulated): 5.5 (4.8, 6.2) ng/mL; OF/blood Conc. (*100) ([6]; C2 (fed), Resting): 7 (5, 9); Tacrolimus Conc. in OF ([6]; C2 (fed), Resting): 635 (437, 923) pg/mL; Tacrolimus blood Conc. ([6]; C2 (fed), Resting): 9.4 (7.6, 11.7) ng/mL; OF/blood Conc. (*100) ([6]; C2 (fed), Rinsed): 5 (4, 7); Tacrolimus Conc. in OF ([6]; C2 (fed), Rinsed): 468 (347, 630) pg/mL; Tacrolimus blood Conc. ([6]; C2 (fed), Rinsed): 9.0 (7.4, 11.0) ng/mL; OF/blood Conc. (*100) ([6]; C2 (fed), Stimulated): 3 (2, 4); Tacrolimus Conc. in OF ([6]; C2 (fed), Stimulated): 235 (167, 330) pg/mL; Tacrolimus blood Conc. ([6]; C2 (fed), Stimulated): 8.8 (7.6, 10.2) ng/mL
